The values that follow come from patent publication US5478825A, “5-(substituted amino)-1,2,4-triazolo (1,5-A) pyrimidine derivatives” (Egis Gyogyszergyar, priority 1991, dated 1995).

For assay [1], the system named is rats (vasopressin induced coronaria insufficiency). Kind of assay: Antianginal effect in rats (vasopressin induced coronaria insufficiency). As to conditions: Rattus norvegicus, iv; i.v. 2 minutes prior to vasopressin; T wave in ECG. The class given is in vivo. How it is done: 3.a) Antianginal effect in rats
Rats weighing 180-220 g were narcotized with chloralose-urethane (70/700 mg/kg i.p.). The ECG was registered with needle electrodes in standard II leading. The experimental coronaria insufficiency was induced with vasopressin (1 NE/kg i.v.). The height of T wave in ECG was measured before and after the administration of vasopressin in both the control and treated groups. Test compounds were administered intravenously 2 minutes prior to the treatment with vasopressin.

The subject of the next assay is hexobarbital narcosis. Kind of assay: Narcosis potentiating activity (hexobarbital). The class given is in vivo, mice. As to conditions: for Narcosis potentiating effect: 100 mg/kg, orally, frequency of positive reaction, hexobarbital 40 mg/kg i.v. How it is done: 6. Narcosis potentiating activity
Groups consisting of 6 mice each were orally treated with the compound to be examined. After one hour, hexobarbital [5-(1-cyclohexenyl)-1,5-dimethylbarbituric acid] was injected intravenously at a dosage of 40 mg/kg. The control group was treated only with hexobarbital to provoke sleep. The duration of sleep was recorded. If the duration of sleep of an animal exceeded that of the mean value of the control group by a factor of 2.5, it was considered as a positive reaction. The frequency of the positive reaction is expressed as the percentage of the value obtained for the control animals.

A further assay relates to carrageen oedema. Kind of assay: Antiinflammatory (Carrageen oedema inhibiting) effect. The class given is in vivo. How it is done: 4. Antiinflammatory (Carrageen oedema inhibiting) effect
The experiments were carried out by the method of Winter et al. [Winter, C. A. et al.: Proc. Soc. […] 0.1 ml of a 1 per cent carrageen suspension was injected subcutaneously into the plantar region of one of the hind paws. Rats were fasted for 12 hours and received drinking water ad libitum. One hour before treatment with the test compound the animals were hydrated orally with 30 ml/kg of tap water. The test compounds or the vehicle were administered p.o. in a volume of 10 ml/kg, then one hour later carrageen was applied. The volume of the treated paw was measured by a plethysmometer before and 3 hours after injection in such a way that displacement of the liquid arising from the volume alteration was indicated on a millimeter scale. The volume of the treated paws were compared with those of the control group.

The test system of a further assay is motility of mice. The assay can be described thus: Motility inhibiting activity. The class given is in vivo. Conditions: for Change in motility vs control: 100 mg/kg, orally. How it is done:
5. Motility inhibiting activity
The tests were performed according to the method of Borsy et al. [Arch. Int. Pharmacodyn. 124, 1-2 (1960)]. Groups consisting of 3 mice each were treated orally with different doses of the compounds to be tested. Then the test animals were placed in a Dews equipment. In this equipment the number of interruptions of infrared beam within 30 minutes was counted. The inhibition is expressed as the percentage of the value obtained for the control animals.

In a further assay the test system is gastric acid secretion. Kind of assay: Gastric acid secretion test. The class given is in vivo, rat. How it is done:
8. […] Rats of both sexes (Wistar breed, weighing 180-240 g) were fastened for 48 hours. On the day of the test the pylorus of the animals was bound under ether narcosis. The test compounds were administered orally 3 hours before the operation. 4 hours after the operation the animals were anaesthetized and the stomach was removed, the content thereof was centrifuged and the amount of the free acid was determined by titration, in the presence of Topfer reagent. The inhibition in relation to the control is calculated in percentage.

The next assay deals with right atrium. Kind of assay: Positive inotropic effect in guinea pig (isolated right atrium). How it is done: 2. Positive inotropic effect in guinea pig
The experiments were carried out by the method of Alousi [Alousi, A. A. et al.: J. Cardiovasc. […] Animals weighing 400-600 g were stunned with a blow to the head and exsanguinated. The heart was excised and the right atrium was removed and placed into a modified Tyrode solution of 37° C. It was then preloaded with 2.1 g and stimulated electrically at a rate of 2 Hz by rectangular pulses 0.5 ms in duration. The first derivative by time of the contraction force of the isolated organ (dP/dt) and the atrial frequency were recorded by a polygraph. From the data thus obtained percentage changes were calculated.

In the next assay the test system is coronary artery. Kind of assay: Coronary flow test in dog. It counts as in vivo. How it is done: 3.b) Coronary flow test in dog
The experiments were carried out in young mongrel do, of both sexes weighing 10-26 kg. The test compounds were administered in 1-5-10 mg/kg doses intravenously. […] Mean arterial blood pressure was recorded on the carotis with a Statham gauge (type: p23Db). The changes of the myocardial contractile forces were followed isometrically with a microdynamometer (type: Experimetria, SG-01) affixed to the anterior wall of the left ventricle. Data were collected on the first derivate of the myocardial contractile force to follow the changes of the contraction and relaxation speed. […] The changes of the heart rate were also followed. The conductivity of the coronary artery (the ratio of the mean coronary flow and the mean blood pressure) was calculated. The mean values were evaluated statistically using Student's test as well as regression analysis and multiple t test.

Another assay deals with pentetrazole spasm. The assay can be described thus: Spasmolytic activity on mice (pentetrazole spasm). The class given is in vivo. Conditions: orally; for Inhibition of pentetrazole spasm: 100 mg/kg, pentetrazole 125 mg/kg i.p. How it is done: 7. Spasmolytic activity on mice
The tests were carried out according to the modified method of Benzinger and Hane [Arch. Int. Pharmacodyn. 167, 245-249 (1959)]. Mice of both sexes (NMRI breed, body weight 20-25 g) were treated orally with the compounds to be tested. One hour after the administration pentetrazole (6,7,8,9-tetrahydro-5H-tetrazoloazepine) was given intraperitoneally in a dosis of 125 mg/kg. The tonic-extensoric spasms on the hind limbs were registered. As reference compound 3,5,5-trimethyl-oxazolidine-2,4-dione (trimetadione) was used.

The mark [2] stands for this setting: Rattus norvegicus, po, 3 h; read-out: ID30.

The ED50 is the dose that gives a 50% effect, or the effect in half of the subjects.

Like-named read-outs stand apart in the source and are kept apart here.

On to `CSc1nc2nc3c(c(N4CCN(CCO)CC4)n2n1)CCC3` [Example 9, 5-[4-(2-Hydroxyethyl)piperazino]-2-(methylthio)-6,7-dihydro-8H-cyclopenta[d]-1,2,4-triazolo[1,5-a]pyrimidine], for which the ED50 in assay [1] was roughly 2 mg/kg. As to `OCCN(CCO)c1c2c(nc3nc(N4CCOCC4)nn13)CCC2` [Example 11, 5-[N-bis(2-Hydroxyethyl)]amino-2-morpholino-6,7-dihydro-8H-cyclopenta[d]-1,2,4-triazolo[1,5-a]pyrimidine], the Narcosis potentiating effect in the assay on hexobarbital narcosis came out at 67%. In the case of `CSc1nc2nc3c(c(N4CCN(Cc5ccccc5)CC4)n2n1)CCC3` [Example 54, 5-(4-Benzylpiperazino)-2-(methylthio)-6,7-dihydro-8H-cyclopenta[d]-1,2,4-triazolo[1,5-a]pyrimidine], the ED30 in the assay with carrageen oedema (setting [2]) was determined as 85 mg/kg. Regarding `CCN(CC)c1c2c(nc3nc(N(C)C)nn13)CCCS2` [Example 26, 5-(Diethylamino)-2-(dimethylamino)-7,8-dihydro-9H-thiopyrano[3,2-d]-1,2,4-triazolo[1,5-a]pyrimidine], in the assay on carrageen oedema (setting [2]), the ED30 worked out at 170 mg/kg.

On to `CCCC(C)(COC(N)=O)COC(N)=O` [Meprobamate, reference compound], for which the median effective dose (ED50) in the assay on hexobarbital narcosis (Mus musculus, po, read-out: ED50 (narcosis potentiating effect)) was 260 mg/kg; in the assay with motility of mice (Mus musculus, po, read-out: ED50 (motility inhibition)), 232 mg/kg. Further, the “narcosis potentiating effect (in words)” value in the assay on hexobarbital narcosis (dose of 100 mg/kg) is “inactive”. The “motility inhibition (in words)” value with motility of mice (dose of 100 mg/kg) was “inactive”. For `C=CCN(CC=C)c1c2c(nc3nc(SC)nn13)CCC2` [Example 4, 5-(Diallylamino)-2-(methylthio)-6,7-dihydro-8H-cyclopenta[d]-1,2,4-triazolo[1,5-a]pyrimidine], it took a dose of 1.97 mg/kg to reach the 50% effect level in assay [1] (ED50). As for `CSc1nc2nc3c(c(NCCN4CCOCC4)n2n1)CCC3` [Example 10, 2-(Methylthio)-5-[N-(2-morpholinoethyl)]amino-6,7-dihydro-8H-cyclopenta[d]-1,2,4-triazolo[1,5-a]pyrimidine], the 50% effective dose (ED50) in assay [1] was determined as 1.47 mg/kg. In addition, the ED30 with carrageen oedema (setting [2]) is 120 mg/kg. As for `CC(=O)Nc1ccc(O)cc1` [Paracetamol, reference compound], the ED30 in the assay on carrageen oedema (setting [2]) stood at 195 mg/kg. Consider `CN(C)CCCNc1c2c(nc3nc(N4CCOCC4)nn13)CCCC2` [Example 22, 5-[N-(3-Dimethylaminopropyl)]amino-2-morpholino-6,7,8,9-tetrahydro-1,2,4-triazolo[5,1-b]quinazoline], for which the median effective dose (ED50) in assay [1] was roughly 2 mg/kg. For `CCN(CC)c1c2c(nc3nc(SC)nn13)CCC2` [Example 1, 5-(Diethylamino)-2-(methylthio)-6,7-dihydro-8H-cyclopenta[d]-1,2,4-triazolo[1,5-a]pyrimidine], the “Inhibition (gastric acid secretion)” value in the assay on gastric acid secretion (200 mg/kg p.o.) was 75%.

`CSc1nc2nc3c(c(NCCN4CCOCC4)n2n1)CCCCCCCCCC3` [Example 35, 2-(Methylthio)-5-[N-(2-morpholinoethyl)]amino-6,7,8,9,10,11,12,13,14,15-decahydro-cyclododeca[d]-1,2,4-triazolo[1,5-a]pyrimidine]: in the assay on right atrium (percentage change of atrial frequency), the Frequency worked out at 8%. Also, the “Concentration force dP/dt” value in the assay with right atrium (percentage change, 2 Hz, 37° C., concentration not given) is given as 79%. Besides, the “Conductivity of the coronary artery” value was found to be 256% in the assay with coronary artery (1 mg/kg i.v.), 940% in the assay on coronary artery (5 mg/kg i.v.) and 1030% with coronary artery (10 mg/kg i.v.). Consider `COc1ccc(CNc2c3c(nc4nc(SC)nn24)CCC3)cc1` [Example 50, 2-(Methylthio)-5-(4-methoxybenzylamino)-6,7-dihydro-8H-cyclopenta[d]-1,2,4-triazolo[1,5-a]pyrimidine], for which the ED30 in the assay with carrageen oedema (setting [2]) was determined as 190 mg/kg. In assay [1], `CSc1nc2nc3c(c(NCc4ccccc4)n2n1)CCC3` [Example 6, 5-(Benzylamino)-2-(methylthio)-6,7-dihydro-8H-cyclopenta[d]-1,2,4-triazolo[1,5-a]pyrimidine] had an ED50 of 1.49 mg/kg. For `COc1cc(C(=S)N2CCOCC2)cc(OC)c1OC` [Trithiozine, reference compound], the “Inhibition (gastric acid secretion)” value in the assay with gastric acid secretion (400 mg/kg p.o.) came out at 63%. `CN1C(=O)OC(C)(C)C1=O` [Trimetadione, 3,5,5-trimethyl-oxazolidine-2,4-dione, reference compound]: the ED50 in the assay on pentetrazole spasm (Mus musculus, po, read-out: ED50 (inhibition of pentetrazole spasm)) amounted to 400 mg/kg.

As to `Cc1cc(N(CCO)Cc2ccccc2)n2nc(N3CCOCC3)nc2n1` [Example 24, 5-[N-Benzyl-N-(2-hydroxyethyl)]amino-7-methyl-2-morpholino-1,2,4-triazolo[1,5-a]pyrimidine], the Narcosis potentiating effect in the assay with hexobarbital narcosis came out at 67%. `CN/C(=N/CCSCc1nc[nH]c1C)NC#N` [Cimetidine, reference compound]: the “Inhibition (gastric acid secretion)” value with gastric acid secretion (200 mg/kg p.o.) amounted to 91%. Take `C1Cc2nc3nc(N4CCOCC4)nn3c(N3CCOCC3)c2C1` [Example 15, 2,5-Dimorpholino-6,7-dihydro-8H-cyclopenta[d]-1,2,4-triazolo[1,5-a]pyrimidine]: the “Inhibition of pentetrazole spasm” value in the assay on pentetrazole spasm is on record as -50%. Moreover, the “Change in motility vs control” value in the assay with motility of mice is recorded as -65%. `CSc1nc2nc3c(c(NCc4ccc(Cl)cc4)n2n1)CCC3` [Example 7, 5-(4-Chlorobenzylamino)-2-(methylthio)-6,7-dihydro-8H-cyclopenta[d]-1,2,4-triazolo[1,5-a]pyrimidine]: the ED30 with carrageen oedema (setting [2]) stood at 200 mg/kg. `CCOC(=O)CNc1c2c(nc3nc(SC)nn13)CCC2` [Example 60, Ethyl N-[2-methylthio-6,7-dihydro-8H-cyclopenta[d]-1,2,4-triazolo[1,5-a]pyrimidin-5-yl]glycinate] gave an ED50 in assay [1] of roughly 2 mg/kg. For the compound `CSc1nc2nc3c(c(NCCN4CCOCC4)n2n1)CCCC3` [Example 18, 2-(Methylthio)-5-[N-(2-morpholinoethyl)]amino-6,7,8,9-tetrahydro-1,2,4-triazolo[5,1-b]quinazoline], in the assay on pentetrazole spasm, the “Inhibition of pentetrazole spasm” value is -56%. For the compound `CC(=O)Oc1ccccc1C(=O)O` [Acetylsalicylic acid, reference compound], the ED30 in the assay on carrageen oedema (Rattus norvegicus, po, 3 h, read-out: ID30) worked out at 62.4 mg/kg. Compound `C1CCN(c2c3c(nc4nc(N5CCOCC5)nn24)CCC3)CC1` [Example 16, 2-Morpholino-5-piperidino-6,7-dihydro-8H-cyclopenta[d]-1,2,4-triazolo[1,5-a]pyrimidine] returned an ED50 in assay [1] of 1.52 mg/kg. In the assay on motility of mice, the “Change in motility vs control” value was -53%.
